The test system of this test is CHO-K1 cells. Kind of test: RADD detection of BrdU incorporation into genomic DNA. The class given is cell-based, Chinese hamster. Conditions: CHO-K1 cells sensitized 24 h, versus basal levels, FIG. 5A.

For `O=c1[nH]c(=O)n([C@H]2C[C@H](O)[C@@H](CO)O2)cc1Br` [BrdU, bromodeoxyuridine], the “RADD mean fluorescence intensity of the nucleus (DNA lesions)” value is on record as “increased levels of DNA lesions”.

(Values after US20200277649A1, “BROAD SPECTRUM DETECTION OF DNA DAMAGE BY REPAIR ASSISTED DAMAGE DETECTION (RADD)” (University of South Alabama, priority 2017, published 2020).)
